Experimental data as given in publication PMC7725824, “Fused isoselenazolium salts suppress breast cancer cell growth by dramatic increase in pyruvate-dependent mitochondrial ROS production” (Scientific Reports, 2020).

Legend:
[1] = Cytotoxicity assay (MTT), HEKa; assay type: cell-based, human; details: human, HEKa cells (primary epidermal keratinocytes), normal cell line, mean ± S.D., 3 experiments
Protocol: (§1) MCF-7 (human breast adenocarcinoma, estrogen-positive) and 4T1 (mouse carcinoma), as breast cancer cell lines, and H9C2 (rat cardiomyoblasts), NIH 3T3 (mouse fibroblasts), HEKa (primary human epidermal keratinocytes), MDCK (Madin-Darby Canine Kidney) cells, and A7r5 (rat vascular smooth muscle cells), as normal cell lines, were obtained from the American Type Culture Collection [ATCC] collection for use in the current study. All cell lines were cultured in Dulbecco's modified Eagle's medium (DMEM) containing 10% fetal bovine serum (FBS) and 4 mM L-glutamine at 37 °C and 5% CO2.
(§2) Cell viability was assessed by the addition of 3-(4,5-dimethylthiazol-2-yl)-2,5-diphenyltetrazolinium bromide (MTT). Briefly, cells were seeded (2–6 × 10^4 cells/ml) in 96-well plates and allowed to attach for 24 h. Solutions of test compounds were prepared and serially diluted to obtain the appropriate concentrations. The cells were treated with the test compounds at different concentrations (0.032–100 µM) and incubated for 48 h at 37 °C and 5% CO2. Then, the culture medium was removed, and medium containing 0.2 mg/ml MTT was added. After 3 h (37 °C, 5% CO2), the MTT-containing medium was removed, and 200 μl of dimethyl sulfoxide (DMSO) was immediately added to each sample. The absorbance was assessed at 540 nm using a Tecan multiplate reader Infinite 1000 (Austria). The half-maximal inhibitory concentration (IC50) of each compound was calculated using Graph Pad Prism 3.0.

4T1 = assay: Cytotoxicity assay (MTT), 4T1; assay type: cell-based, mouse
Protocol: as §1, §2

NAMPT = target: T1, NAMPT (Homo sapiens, UniProt P43490); assay: NAMPT activity assay in lysates of treated cells; assay type: cell-based; details: MCF-7 cells, 2 µM, 4 h
T1 construct: endogenous in cells; host or cells: MCF-7
Protocol: MCF-7 cells (5 × 10^6 cells per well) were grown in a 6-well plate and then incubated with the test compounds (2 µM) for 4 h. The cells were harvested by scraping, washed with PBS and lysed with 50 mM Tris–HCl (pH 7.5), 150 mM NaCl, 1 mM DTT, 1 mM PMSF, 0.002 mg/ml leupeptin and pepstatin (2 × 10^6 cells in 100 µl buffer solution). After three freeze–thaw cycles at -80 °C, the cell extract was centrifuged at 15 000 × g for 30 min at 4 °C. The supernatant was collected, and the protein concentrations were determined using a Bio-Rad protein assay kit. The NAMPT enzyme reaction was performed as described previously. The enzymatic reaction mixture contained 50 mM Tris–HCl buffer (pH 7.5), 12 mM MgCl2, 2 mM DTT, 0.02% BSA, 2.5 mM ATP, 0.8 mM PRPP, and 50 μM nicotinamide. […] The concentrations of the NAMPT reaction product, nicotinamide mononucleotide (NMN), in the samples were determined using a described method. […] The fluorescence was measured using a Tecan multiplate reader Infinite 1000 (Austria) with excitation at 382 nm and emission at 445 nm. The NMN concentrations in the reaction mixtures were determined by comparison with NMN standards in the range of 0.16–20 μM. The NAMPT activity in the cell lysates is expressed as the concentration of NMN in μmol per mg protein per hour based on standard NMN readings.

MCF-7 = assay: Cytotoxicity assay (MTT), MCF-7; assay type: cell-based, human; details: Homo sapiens, MCF7; breast cancer cell line; MTT, 48 h; mean ± S.D., 3 experiments; read-out: Cytotoxicity, IC50, MCF-7
Protocol: as §1, §2

MCF-7 cells [2] = assay: NAD+/NADH assay kit measurement; assay type: cell-based, human; details: 2 μM, 10 min, vs control
Protocol: The NAD^+/NADH ratio in the MCF-7 cells exposed to the test compounds (2 μM) for 10 min was measured using an NAD^+/NADH assay kit (Abcam, ab65348) according to the manufacturer's instructions.

[3] = Cytotoxicity assay (MTT), H9C2; assay type: cell-based, rat; details: rat, H9C2 cells (cardiomyoblasts); normal cell line; MTT, 48 h; mean ± S.D., 3 experiments
Protocol: as §1, §2

[4] = Cytotoxicity assay (MTT), A7r5; assay type: cell-based, rat; details: rat, A7r5 cells (vascular smooth muscle cells), normal cell line, mean ± S.D., 3 experiments
Protocol: as §1, §2

permeabilized 4T1 cells = assay: High-resolution fluorespirometry (respiration and H2O2 flux); assay type: cell-based, mouse
Protocol: High-resolution fluorespirometry was performed using an Oxygraph-2 k system (OROBOROS INSTRUMENTS, Austria). All experiments were performed at 37 °C in MiR05 medium (110 mM sucrose, 60 mM K-lactobionate, 0.5 mM EGTA, 3 mM MgCl2, 20 mM taurine, 10 mM KH2PO4, 20 mM HEPES, pH 7.1 at 30 °C, and 0.1% BSA essentially fatty acid free). The medium was reoxygenated when the oxygen concentration dropped to 80 µM. H2O2 flux was simultaneously measured with respirometry in the O2k-Fluorometer using the H2O2-sensitive probe Ampliflu Red (AmR) as described. The H2O2/O flux ratio [%] was calculated as the H2O2 flux/(0.5 O2 flux).
In permeabilized 4T1 cells, pyruvate + malate (5 and 2 mM) or glutamate + malate (10 and 2 mM) were used to determine complex I (CI)-linked LEAK (L) respiration. ADP was added to a concentration of 5 mM to determine the oxidative phosphorylation-dependent respiration (OXPHOS state). Succinate (10 mM, complex II (CII) substrate) was then added to reconstitute convergent CI&II-linked respiration. Rotenone (0.5 µM, an inhibitor of complex I) and antimycin A (2.5 µM, an inhibitor of complex III) were added to determine the CII-linked OXPHOS capacity and residual oxygen consumption (ROX), respectively. Compound 6 was added to permeabilized cells after the addition of the respective substrates in the OXPHOS state (titration experiment) or in the LEAK state. In addition, compounds 3, 6 and 7 were tested at 1 µM in the OXPHOS coupling protocol in the LEAK state. The OXPHOS coupling efficiency was calculated as: 1-Resp.rateLEAKstate/Resp.rateOXPHOSstate
The substrate-dependent flux control factor was calculated as: 1-Resp.ratebeforeadditionofrespectivesubstrate/Resp.rateafteradditionofrespectivesubstrate

[5] = Cytotoxicity assay (MTT), 3T3; assay type: cell-based, mouse; details: mouse, NIH 3T3 cells (fibroblasts), normal cell line, mean ± S.D., 3 experiments
Protocol: as §1, §2

MCF-7 cells [6] = assay: Fluorometric measurement of NMN level; assay type: cell-based, human; details: 2 μM, 10 min, vs control
Protocol: For fluorometric measurements of NMN, a previously described method was used, with minor modifications. […] The cells were washed with PBS and then lysed by adding 200 μl of 1 M HClO4 to each well and incubating at 4 °C for 20 min. The cells were harvested by scraping and transferred to a tube. The extracts were neutralized with 100 μl of 2 M KOH for 5 min at room temperature and 50 μl of 0.1 M bicine (pH 7.4) was added. The samples were centrifuged at 14 000 × g for 10 min at 4 °C, and the supernatant was collected for further analysis. The protein concentration in each sample was determined using a Bio-Rad protein assay kit. […] The reaction was incubated for 2 min at 4 °C, after which 45 μl of 88% formic acid was added, and the samples were incubated for another 10 min at 37 °C on a shaker. The fluorescence was measured using a Tecan multiplate reader Infinite 1000 (Austria) with excitation at 382 nm and emission at […].

[7] = Cytotoxicity assay (MTT), MDCK; assay type: cell-based, Canine; details: dog, MDCK cells, normal cell line, mean ± S.D., 3 experiments
Protocol: as §1, §2

[8] = 1 µM, pyruvate-dependent OXPHOS state
[9] = titration, pyruvate + malate and glutamate + malate, OXPHOS

T1 sequence (P43490 whole entry): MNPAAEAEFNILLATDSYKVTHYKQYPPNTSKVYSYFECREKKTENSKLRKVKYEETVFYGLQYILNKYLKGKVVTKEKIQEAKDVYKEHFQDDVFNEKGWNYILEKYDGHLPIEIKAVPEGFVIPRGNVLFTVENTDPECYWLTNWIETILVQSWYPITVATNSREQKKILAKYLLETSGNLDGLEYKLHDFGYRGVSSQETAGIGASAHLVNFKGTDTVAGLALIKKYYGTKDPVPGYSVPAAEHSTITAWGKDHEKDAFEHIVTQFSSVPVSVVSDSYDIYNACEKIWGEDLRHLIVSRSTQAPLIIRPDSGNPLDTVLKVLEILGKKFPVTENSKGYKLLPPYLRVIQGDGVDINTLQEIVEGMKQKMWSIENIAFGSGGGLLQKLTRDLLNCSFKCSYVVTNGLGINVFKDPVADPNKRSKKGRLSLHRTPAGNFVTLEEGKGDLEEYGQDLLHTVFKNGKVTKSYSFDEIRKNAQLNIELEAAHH

For OC1(c2[se][n+]3ccccc3c2Br)CCCCC1.[Cl-] [Compound 3, 3-bromo-2-(1-hydroxycyclohexyl)-[1,2]selenazolo[2,3-a]pyridinium chloride], the IC50 at 48 h [1] was 2210 ± 20 nM, the IC50 (4T1; Mus musculus, 4T1, breast cancer cell line, MTT, 48 h, mean ± S.D., 3 experiments, read-out: Cytotoxicity, IC50, 4T1) was 44 ± 5 nM and the “selectivity towards tumor cell lines” value (4T1; comparing 4T1 to A7r5) was over 42 fold. For the same compound, the “reduction in NAMPT activity” value (NAMPT) was “slight decreases”, the IC50 (MCF-7) was 500 ± 20 nM and the “decrease in NAD+ level” value (MCF-7 cells [2]) was 59%. For the same compound, the “decrease in NAD+/NADH ratio” value (MCF-7 cells [2]) was 38%, the “decrease in NADH level” value (MCF-7 cells [2]) was 33% and the IC50 at 48 h [3] was 2200 ± 100 nM. For the same compound, the IC50 at 48 h [4] was 1850 ± 220 nM, the OXPHOS coupling efficiency (permeabilized 4T1 cells; 1 µM) was “significant decrease” and the “increase in H2O2/O ratio” value (permeabilized 4T1 cells; [8]) was “immediate significant increases”. For the same compound, the “increase in H2O2 production” value (permeabilized 4T1 cells; [8]) was “immediate significant increases”, the “mitochondrial function in the CII-linked OXPHOS state” value (permeabilized 4T1 cells; titration) was “no significant changes” and the “H2O2 production with complex I (NADH-linked) substrates” value (permeabilized 4T1 cells; [9]) was “increased”. The “mitochondrial respiration rate with complex I (NADH-linked) substrates” value (permeabilized 4T1 cells; [9]) was “inhibited”, the IC50 at 48 h [5] was 390 ± 50 nM and the “decrease in NMN levels” value (MCF-7 cells [6]) was 33%. For the same compound, the IC50 at 48 h [7] was 2910 ± 130 nM.
